target: T1, hERG potassium channel (Homo sapiens, UniProt Q12809); experiment: automated whole-cell patch clamp (Patchliner), HEK […] cells expressing hERG, room temperature; type: cell-based
T1 construct: gene KCNH2
T1 sequence (Q12809 whole entry): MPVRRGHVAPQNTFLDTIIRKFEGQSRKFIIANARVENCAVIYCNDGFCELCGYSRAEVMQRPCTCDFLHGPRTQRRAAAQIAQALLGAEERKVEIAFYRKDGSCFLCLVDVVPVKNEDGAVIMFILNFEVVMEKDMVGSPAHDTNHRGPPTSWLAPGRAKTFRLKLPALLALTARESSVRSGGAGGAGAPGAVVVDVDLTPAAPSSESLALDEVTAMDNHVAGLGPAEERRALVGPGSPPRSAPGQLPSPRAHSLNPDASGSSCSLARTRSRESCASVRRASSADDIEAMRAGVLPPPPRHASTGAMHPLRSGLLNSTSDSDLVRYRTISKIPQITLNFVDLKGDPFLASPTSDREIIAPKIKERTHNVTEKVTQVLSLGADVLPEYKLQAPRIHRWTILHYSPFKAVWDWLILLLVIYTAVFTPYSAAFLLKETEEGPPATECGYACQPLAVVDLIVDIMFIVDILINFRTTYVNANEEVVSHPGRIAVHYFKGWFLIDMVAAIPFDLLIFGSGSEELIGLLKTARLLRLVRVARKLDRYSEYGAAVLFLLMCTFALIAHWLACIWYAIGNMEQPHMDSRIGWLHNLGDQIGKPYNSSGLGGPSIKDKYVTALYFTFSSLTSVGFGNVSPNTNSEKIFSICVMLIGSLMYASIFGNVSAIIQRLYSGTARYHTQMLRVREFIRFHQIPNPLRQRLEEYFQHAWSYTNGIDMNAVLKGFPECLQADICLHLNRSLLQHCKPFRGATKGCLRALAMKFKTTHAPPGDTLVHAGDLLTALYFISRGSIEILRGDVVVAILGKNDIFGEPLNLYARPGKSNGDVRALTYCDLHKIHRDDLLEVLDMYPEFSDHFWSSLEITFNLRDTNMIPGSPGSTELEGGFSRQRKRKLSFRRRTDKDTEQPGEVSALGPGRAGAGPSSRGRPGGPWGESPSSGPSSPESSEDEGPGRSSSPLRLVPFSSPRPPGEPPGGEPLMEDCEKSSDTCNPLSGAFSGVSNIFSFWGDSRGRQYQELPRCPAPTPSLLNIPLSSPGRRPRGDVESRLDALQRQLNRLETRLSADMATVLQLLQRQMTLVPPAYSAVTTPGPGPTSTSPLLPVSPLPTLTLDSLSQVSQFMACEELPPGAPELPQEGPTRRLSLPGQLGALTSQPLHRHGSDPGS

Going from `CCCCCc1cc(O)c2c(c1)OC(C)(C)[C@@H]1CCC(C(=O)O)=C[C@@H]21` [11-nor-9-carboxy-tetrahydrocannabinol] to `CCCCCc1cc(O)c2c(c1)OC(C)(C)[C@@H]1CCC(C)=C[C@@H]21` [tetrahydrocannabinol], the IC50 falls from 65.4 ± 3.82 µM to 10.3 ± 0.55 µM (6.3-fold). The second is the more potent here.

In the case of `C=C(C)[C@@H]1CCC(C)=C[C@H]1c1c(O)cc(CCCCC)cc1O` [cannabidiol], the IC50 is reported as 2.07 ± 0.12 µM.
